# Where “and” joins values, the source holds several entries; their conditions need not be identical. Equal entries are not always repeated.
# Columns and labels:
# Type in all cases: in vivo, human
# [1] = tested on: participants with type 2 diabetes and prevalent DKD; assay: CANVAS trial post hoc analysis: composite kidney outcome, canagliflozin vs placebo, by KidneyIntelX risk strata; conditions: for incidence of the composite kidney outcome: canagliflozin arm
# Procedure: (§1) Blood and urine samples for exploratory biomarker research can be stored during the CANVAS trial. In some instances, participants can be randomly assigned using a central web-based response system in a 1:1:1 ratio to treatment with 100 mg canagliflozin, 300 mg canagliflozin, or matching placebo. In some instances, participants can be assigned to treatment with canagliflozin or placebo followed for a median of 6.1 years. All participants, care providers, trial staff, and outcome assessors can be blinded to treatment allocation for the duration of the study. KidneyIntelX algorithm can be indicated for individuals with type 2 diabetes and prevalent DKD, defined by an eGFR ≥30 to 59.9 ml/min/1.73 m2 (G3a and G3b) or those with eGFR ≥60 ml/min/1.73 m2 with a UACR ≥30 mg/g to assess the risk for progressive decline in kidney function within a time period (e.g., 5 years). Thus, for analyses, the subgroup of the CANVAS population can be restricted to meet criteria for prevalent DKD at a time of enrollment.
# (§2) A composite kidney outcome for such post hoc analysis can be defined as: A) progressive decline in kidney function (rapid kidney function decline (e.g., RKFD; with eGFR decline of ≥5 ml/min/year)); B) a sustained 40% decline of eGFR; or C) kidney failure defined as an eGFR <15 mL/min/1.73 m^2 or need for dialysis or kidney transplantation. In CANVAS, eGFR measurements were available at baseline, 6 weeks and annually. Since hemodynamic effects of SGLT2i on acute changes in eGFR, the anchor/baseline to define progressive decline in kidney function and 40% decline in eGFR for participants in the canagliflozin arm can be the eGFR value at 6 weeks. In some instances, when the eGFR value meet ≥40% decline from baseline only on the last eGFR obtained in the CANVAS protocol, then the event can be adjudicated by a blinded adjudication committee to determine qualification as a valid event. In some instances, eGFR slopes can be determined by linear mixed models.
# Continuous baseline variables with normal distributions can be reported as means with standard deviations (SDs). Variables with skewed distributions can be reported as median values with interquartile range (IQRs) and can be natural logarithm transformed before analysis. Furthermore, categorical variables can be reported as percentages. Risk values can be calculated by the KidneyIntelX (using the diagnosis device 101) on the participants in the placebo and canagliflozin arms of CANVAS with prevalent DKD, with the inputs as per the currently commercially available test which include the following: baseline TNFR-1, TNFR-2 and KIM-1 levels, TNFR-2/TNFR-1 ratio, KIM-1/TNFR-1 ratio, eGFR, UACR, HbA1C, systolic BP, AST, platelets, and serum calcium. The risk score cutoffs that were previously validated can applied to the CANVAS participants with DKD and available baseline plasma. Each individual can be allocated a predicted probability of the composite outcome using the baseline inputs as per the risk value generated by the KidneyIntelX algorithm and a continuous KidneyIntelX score between 5 and 100 in increments of 5. For example, consistent with the pre-defined commercial cut offs, participants with a risk value between 5 and 45 can be classified as “low risk”, between 50 and 85 can be classified as “intermediate risk”, and those with a risk value between 90 and 100 can be classified as “high risk”. Therefore, by determining proportion experiencing the composite kidney event within the categorical risk strata and used logistic regression, the relative odds of the endpoint for high vs. low risk and intermediate risk score strata can be determined.
# Proportion of participants that experienced composite kidney outcome by KidneyIntelX algorithm risk strata can be compared to a proportion as classified by participants' Kidney Disease Improving Global Outcomes (KDIGO) KDIGO risk strata based on their baseline eGFR and UACR value. […]
# [2] = tested on: participants with type 2 diabetes and prevalent DKD; assay: CANVAS trial post hoc analysis: chronic eGFR slope, canagliflozin vs placebo, by risk strata
# Procedure: as §1, §2
# To explore whether baseline KidneyIntelX scores modified the treatment effect of canagliflozin versus placebo on the composite kidney outcome and chronic eGFR compared to the treatment effect as per the baseline KDIGO risk strata, tests for heterogeneity can be performed by adding interaction terms between KidneyIntelX or KDIGO and randomized treatment assignment to the relevant logistic regression models for the categorical outcome and mixed linear models for the eGFR slopes. The treatment effect of canagliflozin versus placebo on KidneyIntelX risk scores over time can be assessed by calculating the difference of change in risk values generated by the KidneyIntelX algorithm (e.g., using the diagnosis device 101) between treatment arms using mixed linear models. […]
# [3] = tested on: participants with type 2 diabetes and prevalent DKD; assay: CANVAS trial post hoc analysis: KidneyIntelX risk score over time, canagliflozin vs placebo
# Procedure: Blood and urine samples for exploratory biomarker research can be stored during the CANVAS trial. In some instances, participants can be randomly assigned using a central web-based response system in a 1:1:1 ratio to treatment with 100 mg canagliflozin, 300 mg canagliflozin, or matching placebo. In some instances, participants can be assigned to treatment with canagliflozin or placebo followed for a median of 6.1 years. All participants, care providers, trial staff, and outcome assessors can be blinded to treatment allocation for the duration of the study. […]
# Continuous baseline variables with normal distributions can be reported as means with standard deviations (SDs). […] Risk values can be calculated by the KidneyIntelX (using the diagnosis device 101) on the participants in the placebo and canagliflozin arms of CANVAS with prevalent DKD, with the inputs as per the currently commercially available test which include the following: baseline TNFR-1, TNFR-2 and KIM-1 levels, TNFR-2/TNFR-1 ratio, KIM-1/TNFR-1 ratio, eGFR, UACR, HbA1C, systolic BP, AST, platelets, and serum calcium. […] Therefore, by determining proportion experiencing the composite kidney event within the categorical risk strata and used logistic regression, the relative odds of the endpoint for high vs. low risk and intermediate risk score strata can be determined. […]
smiles,measurement,setting,value
"Cc1ccc([C@@H]2O[C@H](CO)[C@@H](O)[C@H](O)[C@H]2O)cc1Cc1ccc(-c2ccc(F)cc2)s1 [canagliflozin, (2S,3R,4R,5S,6R)-2-[3-[[5-(4-fluorophenyl)thiophen-2-yl]methyl]-4-methylphenyl]-6-(hydroxymethyl)oxane-3,4,5-triol]","RR for composite kidney outcome, canagliflozin vs. placebo","[1]; all participants with baseline biomarkers, 95% CI 0.49, 0.99",0.70
same,incidence of the composite kidney outcome,[1]; high risk KidneyIntelX stratum,23.0% and 23.5%
same,incidence of the composite kidney outcome,"[1]; intermediate risk KidneyIntelX stratum, mean follow-up 5.6 years",9.5%
same,incidence of the composite kidney outcome,"[1]; low risk KidneyIntelX stratum, mean follow-up 5.6 years",3.6%
same,composite kidney outcome occurrence,"[1]; canagliflozin group, all participants with baseline biomarkers (placebo 11.6%)",8.9%
same,"RR for the kidney outcome, canagliflozin vs. placebo","[1]; high-risk KidneyIntelX stratum, 95% CI 0.38-1.18",0.67
same,absolute risk reduction (ARR) for composite kidney outcome,"[1]; high-risk KidneyIntelX stratum, vs placebo arm 31.4%",7.9%
same,"RR for the kidney outcome, canagliflozin vs. placebo","[1]; intermediate KidneyIntelX stratum, 95% CI 0.36-0.98",0.59
same,"RR for the kidney outcome, canagliflozin vs. placebo","[1]; low-risk KidneyIntelX stratum, 95% CI 0.54-5.08",1.65
same,"difference in chronic eGFR slope, canagliflozin vs. placebo (protection for eGFR decline)",[2]; high risk KidneyIntelX stratum,2.16 ml/min/1.73 m2
same,"difference in chronic eGFR slope, canagliflozin vs. placebo",[2]; highest risk KDIGO stratum,1.31 ml/min/1.73 m2
same,"difference in chronic eGFR slope, canagliflozin vs. placebo (protection for eGFR decline)",[2]; low risk KidneyIntelX stratum,0.66 ml/min/1.73 m2
same,"difference in chronic eGFR slope, canagliflozin vs. placebo (protection for eGFR decline)",[2]; moderate/intermediate risk KidneyIntelX stratum,1.52 ml/min/1.73 m2
same,duration of effect on KidneyIntelX,"[3]; over follow-up, vs placebo (FIG. 24)",persisted over time until the end of follow-up
same,decrease of KidneyIntelX from baseline to one year,"[3]; randomized to canagliflozin, 95% CI -6.9 to -3.9, placebo increased 6.2%, p<0.001",5.4%
